{"source": "patent US20190293584A1", "about": "“Detection of Living Cells” (priority 2018, published 2019)", "key": {"[1]": {"tested_on": "M. smegmatis", "assay_type": "cell-based, Mycobacterium smegmatis"}, "[2]": {"tested_on": "cocktail of S. aureus and P. aeruginosa", "assay": "m-EIS bulk capacitance vs time, incompletely decontaminated artificial sputum with non-mycobacterial cultures", "assay_type": "cell-based, Staphylococcus aureus and Pseudomonas aeruginosa", "details": "incomplete decontamination: NaOH-NALC approximately 1 minute, 0.25 N NaOH", "from_the_text": "All m-EIS readings were done post digestion and decontamination of the samples using the NALC-NaOH technique. In the first case, the sample has no bacteria and no changes in charge storage (bulk capacitance) should occur at any point in time. It is expected to see a flat line as there should be no change in the bulk capacitance over time. In case three, where the sample contains gram-positive and gram-negative bacteria, but no mycobacteria, all organisms should be killed during decontamination (pre-treatment) itself, and the addition of the antibiotics is not expected to cause any changes to the measured value of bulk capacitance. However, if there are mycobacteria in the sample (as in case […]), the mycobacteria should survive the decontamination process and continue to grow in the presence of Carbenicillin (case 2B). However, they will die in the presence of amikacin (case 2A). […]\nThe experimental protocol requires periodic (e.g., every hour) performance of an electrical “scan” of sample aliquots in a microfluidic cassette, wherein electrical impedance was measure at multiple (200) frequencies ranging from 1 kHz to 100 MHz. […] At each frequency (ω), both the in-phase and out-of-phase components of the electrical impedance, Z, (resistance (R) and reactance (X)) were measured. […]"}, "[3]": {"tested_on": "M. bovis BCG", "assay_type": "cell-based, Mycobacterium bovis BCG"}, "[4]": {"tested_on": "mycobacteria", "details": "known from literature; cited from earlier work"}, "[5]": {"tested_on": "most other non-mycobacterial species", "details": "known from literature; cited from earlier work"}, "[6]": {"tested_on": "M. bovis BCG", "details": "known from literature; cited from earlier work"}, "[7]": {"tested_on": "M. smegmatis", "details": "known from literature; cited from earlier work"}, "[8]": {"tested_on": "M. tuberculosis", "details": "known from literature; cited from earlier work"}}, "note": "Where a name gives a salt, the structure may show the parent alone."}
{"molecule": "CC1(C)S[C@@H]2[C@H](NC(=O)C(C(=O)O)c3ccccc3)C(=O)N2[C@H]1C(=O)O", "note": "(some centres unmarked) [Carbenicillin, Carbenicillin disodium salt]", "values": [{"measurement": "change of bulk capacitance (impedance values) over time", "setting": "[1]; Case 2: M. smegmatis, P aeruginosa and S. aureus, after decontamination", "value": "not found to show any decrease over time"}, {"measurement": "change of bulk capacitance over time", "setting": "[2]", "value": "decreases in bulk capacitance were observed over time"}, {"measurement": "rate of increase in bulk capacitance", "setting": "[3]; Case 2, M. bovis BCG, 3 hours observation", "value": "negligible"}, {"measurement": "change of bulk capacitance over time", "setting": "[3]; Case 2, M. bovis BCG, duration of observation 3 hours", "value": "no growth was seen"}, {"measurement": "activity against mycobacteria", "setting": "[4]", "value": "ineffective"}, {"measurement": "activity against non-mycobacterial species", "setting": "[5]", "value": "bactericidal"}]}
{"molecule": "NCC[C@H](O)C(=O)N[C@@H]1C[C@H](N)[C@@H](O[C@H]2O[C@H](CN)[C@@H](O)[C@H](O)[C@H]2O)[C@H](O)[C@H]1O[C@H]1O[C@H](CO)[C@@H](O)[C@H](N)[C@H]1O", "note": "[Amikacin]", "values": [{"measurement": "bactericidal effect", "setting": "[6]", "value": "bactericidal effects"}, {"measurement": "time-to-detection (TTD): earliest time at which bulk capacitance is significantly lower than baseline", "setting": "[1]; M. smegmatis in artificial sputum after NaOH-NALC decontamination, initial loads (1 to 5)×10^5 CFU/ml, amikacin 32 μg/ml, carbenicillin 25 μg/ml", "value": "< 3", "unit": "h"}, {"measurement": "time-to-detection (TTD)", "setting": "[3]; M. bovis BCG in artificial sputum, exposed to amikacin", "value": "< 3", "unit": "h"}, {"measurement": "bactericidal effect", "setting": "[7]", "value": "bactericidal effects"}, {"measurement": "bactericidal effect", "setting": "[8]", "value": "bactericidal effects"}]}
